Reference: publication PMC3511043, “The multicomponent approach to N-methyl peptides: total synthesis of antibacterial (–)-viridic acid and analogues” (Beilstein Journal of Organic Chemistry, 2012)

System: Aliivibrio fischeri
Assay: Aliivibrio fischeri assay: inhibition of bacterial luminescence
Type: cell-based
Conditions: inhibition of bacterial luminescence vs untreated bacteria; 96-well plates; concentration series in DMSO/medium (2% v/v); 24 h incubation at 23 °C in the dark; saline BOSS medium (3% NaCl w/w); read-out: IC50 against the Gram-negative bacterium Aliivibrio fischeri
Text: To our knowledge no biological screening of pure (−)-viridic acid or its analogues has been performed, and due to the potential of natural peptides and peptoids as antibacterial agents, it was decided to investigate their activity against the Gram-negative bacterium Aliivibrio fischeri. […] Although (−)-viridic acid (1) was isolated thirty years ago, this is the first unambiguous report concerning its biological activity. Based upon the results presented above, it seems that the configuration of the stereogenic center has almost no influence on the antibacterial effect of 1.
The Aliivibrio fischeri assay is based on the measurement of the inhibition of bacterial luminescence against a negative control. Bacteria were pregrown on a saline BOSS medium (3% NaCl w/w) whereby at a certain population density, bacterial luminescence will start. The bacterial suspension was diluted, distributed into 96-well microtiter plates (mtp) and the respective compounds were applied as a concentration series as solutions in DMSO/medium (2% v/v) and mixed. The luminescence of bacteria treated with the respective compounds was measured after 24 h incubation at 23 °C in the dark, in relation to controls of untreated bacteria.
1 Neves Filho, R. A. W.; Stark, S. S.; Morejon, M. C.; Westermann, B.;
3 Malkov, A. V.; Stoncius, S.; Mac Dougall, K. N.; Mariani, A.; McGeoch, G. D.; […]

Row | Structure (SMILES) | IC50
1 | CC(C)C(C(=O)Nc1ccccc1C(=O)O)N(C)C(=O)CNC(=O)c1ccccc1N(C)C (racemic) [(±)-1, racemic viridic acid] | 38.4 ± 5.8 µM
2 | CC(C)[C@@H](C(=O)Nc1ccccc1C(=O)O)N(C)C(=O)CNC(=O)c1ccccc1N(C)C [(−)-1, (−)-viridic acid] | 45 ± 4.4 µM
